Data: PMC12449377, “Psychedelic-like effects induced by 2,5-dimethoxy-4-iodoamphetamine, lysergic acid diethylamide, and psilocybin in male and female C57BL/6J mice” (Psychopharmacology, 2025)

What was measured:
[1] = system: C57BL/6J mice; experiment: Locomotor activity (distance traveled) in mice; type: in vivo, mouse; details: for Locomotor Activity (cm) Mean: 30 min
Experimental: At 1–2 weeks prior to the beginning of experiments, mice were habituated to handling and receiving s.c. saline injections. On the day of an experiment, mice were acclimated to the testing room in their home cage for at least 30 min prior to the start of sessions. Prior to each session, mice were weighed, and resting body temperatures were recorded. Mice were then placed into experimental chambers for acclimation. Behavioral testing was carried out in TruScan mouse locomotor arenas equipped with photobeam arrays (Coulbourn Instruments, Holliston, MA, USA) that were modified with cylindrical inserts and transparent flooring to aid in semi-automated HTR detection as previously described (Glatfelter et al. [2022a]). After 5 min of acclimation, basal body temperature was recorded followed by s.c. injection of drug or vehicle, and mice were returned to test chambers for 30 min. Dose ranges for each drug were 0.03–10 mg/kg for DOI, 0.03–10 mg/kg for psilocybin, and 0.003–1 mg/kg for LSD. Mice were randomly assigned to specific doses at the beginning of the experiment and received different doses at each session.
During each session, locomotor activity was quantified via photobeam tracking of distance traveled in cm. Overhead GoPro Hero Black 7 video recordings (120 fps, 960p resolution) were analyzed using a commercially available software package from Clever Sys Inc. (Reston, VA, USA) for the measurement of HTR activity. Mouse body temperature was also collected post-session to calculate temperature change values (basal - post session temperature reading).
Concentration-response data were fit to a single site non-linear regression model. For the HTR studies, potencies were determined from the ascending limb of the dose-response curves using ED50 potency values from [agonist] vs. response (variable slope, four parameter) least squares fit non-linear regression analyses, whereas efficacy was defined by the top output parameter or Emax from the aforementioned analyses. […] Best-fit values for ED50 and Emax from non-linear regression analyses were compared by extra sum-of-squares F tests. Mean effects for each behavioral endpoint were compared using two-way ANOVA (dose x sex), followed by Sidak’s multiple comparisons post-hoc test. Mean effects for pooled mouse behavioral data were compared via Welch’s ANOVA with Dunnett’s T3 post-hoc test, comparing all doses to saline vehicle controls (0 mg/kg). Alpha was set to 0.05 for all analyses.

[2] = system: C57BL/6J mice; details: range over Table 1 and an earlier study; ref Glatfelter et al. ([2024b]); cited from earlier work

CCN(CC)C(=O)[C@@H]1C=C2c3cccc4[nH]cc(c34)C[C@H]2N(C)C1 [LSD, lysergic acid diethylamide]
Locomotor Activity (cm) Mean ([1]; 0.003 mg/kg s.c., female mice): 2499.8 cm
Locomotor Activity (cm) Mean ([1]; 0.003 mg/kg s.c., male mice): 2549.1 cm
Locomotor Activity (cm) Mean ([1]; 0.003 mg/kg s.c., pooled sexes): 2526 cm
Locomotor Activity (cm) Mean ([1]; 0.01 mg/kg s.c., female mice): 2581.2 cm
Locomotor Activity (cm) Mean ([1]; 0.01 mg/kg s.c., male mice): 2649.3 cm
Locomotor Activity (cm) Mean ([1]; 0.01 mg/kg s.c., pooled sexes): 2615 cm
Locomotor Activity (cm) Mean ([1]; 0.03 mg/kg s.c., female mice): 2977.4 cm
Locomotor Activity (cm) Mean ([1]; 0.03 mg/kg s.c., male mice): 2756.4 cm
Locomotor Activity (cm) Mean ([1]; 0.03 mg/kg s.c., pooled sexes): 2867 cm
Locomotor Activity (cm) Mean ([1]; 0.1 mg/kg s.c., female mice): 2290.0 cm
Locomotor Activity (cm) Mean ([1]; 0.1 mg/kg s.c., male mice): 2650.0 cm
Locomotor Activity (cm) Mean ([1]; 0.1 mg/kg s.c., pooled sexes): 2456 cm
Locomotor Activity (cm) Mean ([1]; 0.3 mg/kg s.c., female mice): 2309.5 cm
Locomotor Activity (cm) Mean ([1]; 0.3 mg/kg s.c., male mice): 2123.8 cm
Locomotor Activity (cm) Mean ([1]; 0.3 mg/kg s.c., pooled sexes): 2217 cm
Locomotor activity effect ([1]; 1 mg/kg s.c.): decreased locomotion
Locomotor Activity (cm) Mean ([1]; 1 mg/kg s.c., female mice): 2029.2 cm
Locomotor Activity (cm) Mean ([1]; 1 mg/kg s.c., male mice): 1571.6 cm
Locomotor Activity (cm) Mean ([1]; 1 mg/kg s.c., pooled sexes): 1800 cm
s.c. ED50 doses for inducing HTR in mice [2]: 0.035 to 0.039 mg/kg

COc1cc(CC(C)N)c(OC)cc1I (stereo not drawn) [DOI, 2,5-dimethoxy-4-iodoamphetamine]
Locomotor Activity (cm) Mean ([1]; 0.03 mg/kg s.c., female mice): 2149 cm
Locomotor Activity (cm) Mean ([1]; 0.03 mg/kg s.c., male mice): 2753 cm
Locomotor Activity (cm) Mean ([1]; 0.03 mg/kg s.c., pooled sexes): 2408 cm
Locomotor Activity (cm) Mean ([1]; 0.1 mg/kg s.c., female mice): 2292 cm
Locomotor Activity (cm) Mean ([1]; 0.1 mg/kg s.c., male mice): 3045 cm
Locomotor Activity (cm) Mean ([1]; 0.1 mg/kg s.c., pooled sexes): 2606 cm
Locomotor activity effect ([1]; 1 mg/kg s.c.): marginal increase
Locomotor Activity (cm) Mean ([1]; 1 mg/kg s.c., female mice): 3246.7 cm
Locomotor Activity (cm) Mean ([1]; 1 mg/kg s.c., male mice): 4033.6 cm
Locomotor Activity (cm) Mean ([1]; 1 mg/kg s.c., pooled sexes): 3640 cm
Locomotor Activity (cm) Mean ([1]; 3 mg/kg s.c., female mice): 3192.6 cm
Locomotor Activity (cm) Mean ([1]; 3 mg/kg s.c., male mice): 3289.3 cm
Locomotor Activity (cm) Mean ([1]; 3 mg/kg s.c., pooled sexes): 3241 cm
Locomotor Activity (cm) Mean ([1]; 10 mg/kg s.c., female mice): 2459.7 cm
Locomotor Activity (cm) Mean ([1]; 10 mg/kg s.c., male mice): 2529.1 cm
Locomotor Activity (cm) Mean ([1]; 10 mg/kg s.c., pooled sexes): 2492 cm
